The values that follow come from the supplement of paper PMC10307832.

What all share (assay): relative viability (nuclei count vs DMSO), 5 days (fraction); higher = more cells survive
Compound in experiment [1]: COc1cccc2cc(-c3nc([C@H]4CC[C@H](C(=O)O)CC4)n4ncnc(N)c34)[nH]c12 [OSI-027] + CC1(C)CCC(c2ccc(Cl)cc2)=C(CN2CCN(c3ccc(C(=O)NS(=O)(=O)c4ccc(N[C@H](CCN5CCOCC5)CSc5ccccc5)c(S(=O)(=O)C(F)(F)F)c4)cc3)CC2)C1 [Navitoclax] (partner 0.5 µM)
An outline of the steps: (§1)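 Values are medians from duplicate plates. Each reflects relative viability, defined as the nuclei count of treated wells over that of vehicle wells. Lung cancer cell lines in 1536-well plates were pin-tool dosed one day after seeding with one drug alone or with a fixed anchor-drug dose plus five library-drug doses (not always all listed) in √10 steps, then fixed, stained and imaged at 4× after 5 days.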

Compound in experiment [2]: COc1cccc2cc(-c3nc([C@H]4CC[C@H](C(=O)O)CC4)n4ncnc(N)c34)[nH]c12 [OSI-027] + C[C@@H](Oc1cc(-c2cnn(C3CCNCC3)c2)cnc1N)c1c(Cl)ccc(F)c1Cl [Crizotinib] (partner 1 µM)
An outline of the steps: as §1

Compound in experiment [3]: CCCS(=O)(=O)Nc1ccc(F)c(C(=O)c2c[nH]c3ncc(-c4ccc(Cl)cc4)cc23)c1F [Vemurafenib] + Cc1nc(Nc2ncc(C(=O)Nc3c(C)cccc3Cl)s2)cc(N2CCN(CCO)CC2)n1 [Dasatinib] (partner 0.075 µM)
An outline of the steps:
as §1

Compound in experiment [4]: CCCS(=O)(=O)Nc1ccc(F)c(C(=O)c2c[nH]c3ncc(-c4ccc(Cl)cc4)cc23)c1F [Vemurafenib] + NC(=O)Nc1cc(-c2cccc(F)c2)sc1C(=O)N[C@H]1CCCNC1 [AZD7762] (partner 0.2 µM)
An outline of the steps: as §1

In the case of NCI-H520, the relative viability in experiment [1] (first compound 0.01 µM) stood at 1.31; in experiment [1] (first compound 0.03162 µM) it was 1.05; in experiment [1] (first compound 0.1 µM), 0.793; in experiment [1] (first compound 0.3162 µM), 0.637; in experiment [1] (first compound 1 µM), 0.303; in experiment [2] (first compound 0.01 µM) it was 0.813. For the same cell line, the relative viability in experiment [2] (first compound 0.03162 µM) was determined as 0.848; in experiment [2] (first compound 0.1 µM), 0.876; in experiment [2] (first compound 0.3162 µM) it was 0.424; in experiment [2] (first compound 1 µM), 0.286; in experiment [3] (first compound 0.03162 µM) it was 0.188; in experiment [3] (first compound 0.1 µM), 0.189. For the same cell line, the relative viability in experiment [3] (first compound 0.3162 µM) was determined as 0.203; in experiment [3] (first compound 1 µM), 0.197.

For SW 900, the relative viability in experiment [3] (first compound 0.03162 µM) came to 0.827; in experiment [3] (first compound 0.1 µM), 0.61; in experiment [3] (first compound 0.3162 µM), 0.538; in experiment [3] (first compound 1 µM), 0.505; in experiment [4] (first compound 0.03162 µM) it was 0.575; in experiment [4] (first compound 0.1 µM), 0.469. The relative viability in experiment [4] (first compound 0.3162 µM) was determined as 0.618; in experiment [4] (first compound 1 µM) it was 0.563.

Consider NCI-H358, for which the relative viability in experiment [2] (first compound 0.01 µM) stood at 0.566; in experiment [2] (first compound 0.03162 µM), 0.509; in experiment [2] (first compound 0.1 µM) it was 0.552; in experiment [2] (first compound 0.3162 µM) it was 0.704; in experiment [2] (first compound 1 µM) it was 0.348; in experiment [3] (first compound 0.03162 µM), 0.142. The relative viability in experiment [3] (first compound 0.1 µM) amounted to 0.116; in experiment [3] (first compound 0.3162 µM), 0.22; in experiment [3] (first compound 1 µM), 0.203; in experiment [4] (first compound 0.03162 µM) it was 0.551; in experiment [4] (first compound 0.3162 µM), 0.621; in experiment [4] (first compound 1 µM), 0.632.

Regarding NCI-H1563, the relative viability worked out at 0.835 in experiment [2] (first compound 0.01 µM); 0.894 in experiment [2] (first compound 0.03162 µM); 0.768 in experiment [2] (first compound 0.1 µM); 0.701 in experiment [2] (first compound 0.3162 µM); 0.733 in experiment [2] (first compound 1 µM); 0.526 in experiment [3] (first compound 0.03162 µM). Besides, the relative viability in experiment [3] (first compound 0.1 µM) stood at 0.432; in experiment [3] (first compound 0.3162 µM), 0.465; in experiment [3] (first compound 1 µM), 0.419.

Turning to NCI-H650, the relative viability in experiment [2] (first compound 0.01 µM) turned out to be 0.733; in experiment [2] (first compound 0.03162 µM), 0.583; in experiment [2] (first compound 0.1 µM), 0.582; in experiment [2] (first compound 0.3162 µM) it was 0.469; in experiment [2] (first compound 1 µM) it was 0.336; in experiment [3] (first compound 0.03162 µM), 0.392. Besides, the relative viability is 0.52 in experiment [3] (first compound 0.1 µM); 0.395 in experiment [3] (first compound 1 µM); 0.854 in experiment [4] (first compound 0.03162 µM); 1.03 in experiment [4] (first compound 0.1 µM); 0.419 in experiment [4] (first compound 0.3162 µM); 0.906 in experiment [4] (first compound 1 µM).

For the cell line NCI-H522, the relative viability in experiment [3] (first compound 0.03162 µM) stood at 1.08; in experiment [3] (first compound 0.1 µM), 0.718; in experiment [3] (first compound 0.3162 µM), 0.875; in experiment [3] (first compound 1 µM) it was 0.855; in experiment [4] (first compound 0.03162 µM), 0.797; in experiment [4] (first compound 0.1 µM) it was 0.855. The relative viability in experiment [4] (first compound 0.3162 µM) came out at 0.755; in experiment [4] (first compound 1 µM), 0.869.

In the case of NCI-H661, the relative viability in experiment [2] (first compound 0.01 µM) amounted to 0.998; in experiment [2] (first compound 0.03162 µM), 1.1; in experiment [2] (first compound 0.1 µM) it was 1.14; in experiment [2] (first compound 0.3162 µM), 1.15; in experiment [2] (first compound 1 µM), 0.645; in experiment [3] (first compound 0.03162 µM), 0.829. In addition, the relative viability in experiment [3] (first compound 0.1 µM) came to 0.59; in experiment [3] (first compound 0.3162 µM) it was 0.54; in experiment [3] (first compound 1 µM), 0.938.
